Several values for one entry are separate records, joined by “and”; a condition that tells them apart may be missing. Equal entries are not always repeated. Numbers after ± are expanded uncertainties.
Details: Liquid, Vibrating tube method

CCCCCC(=O)OCC(COC(=O)CCCCC)(COC(=O)CCCCC)COC(=O)CCCCC [pentaerythritol tetrahexanoate]
Details | mass density
323.14 K, 9872.1 kPa | 979.5 ± 1.2 kg/m3
323.14 K, 9877.7 kPa | 979.4 ± 1.2 kg/m3
323.14 K, 9882.8 kPa | 979.5 ± 1.2 kg/m3
323.14 K, 9890.7 kPa | 979.4 ± 1.2 kg/m3
323.14 K, 10279 kPa | 979.8 ± 1.2 kg/m3
323.14 K, 10299 kPa | 979.7 ± 1.2 kg/m3
323.14 K, 10325 kPa | 979.8 ± 1.2 kg/m3
323.14 K, 10354 kPa | 979.8 ± 1.2 kg/m3
323.14 K, 10377 kPa | 979.8 ± 1.2 kg/m3
323.14 K, 10409 kPa | 979.8 ± 1.2 kg/m3
323.14 K, 10437 kPa | 979.7 ± 1.2 kg/m3
323.14 K, 10641 kPa | 980 ± 1.2 kg/m3
323.14 K, 10798 kPa | 980.1 ± 1.2 kg/m3
323.14 K, 10825 kPa | 980 ± 1.2 kg/m3
323.14 K, 10850 kPa | 980 ± 1.2 kg/m3
323.14 K, 10879 kPa | 980.1 ± 1.2 kg/m3
323.14 K, 10908 kPa | 980.2 ± 1.2 kg/m3
323.14 K, 10930 kPa | 980.1 ± 1.2 kg/m3
323.14 K, 11644 kPa | 980.6 ± 1.2 kg/m3
323.14 K, 11671 kPa | 980.7 ± 1.2 kg/m3
323.14 K, 11694 kPa | 980.7 ± 1.2 kg/m3
323.14 K, 11721 kPa | 980.6 ± 1.2 kg/m3
323.14 K, 11748 kPa | 980.6 ± 1.2 kg/m3
323.14 K, 11771 kPa | 980.7 ± 1.2 kg/m3
323.14 K, 11798 kPa | 980.7 ± 1.2 kg/m3
323.14 K, 11821 kPa | 980.9 ± 1.2 kg/m3
323.14 K, 11872 kPa | 980.8 ± 1.2 kg/m3
323.14 K, 13057 kPa | 981.6 ± 1.2 kg/m3
323.14 K, 13085 kPa | 981.6 ± 1.2 kg/m3
323.14 K, 13108 kPa | 981.6 ± 1.2 kg/m3
323.14 K, 13136 kPa | 981.6 ± 1.2 kg/m3
323.14 K, 13163 kPa | 981.7 ± 1.2 kg/m3
323.14 K, 13448 kPa | 981.9 ± 1.2 kg/m3
323.14 K, 13476 kPa | 981.9 ± 1.2 kg/m3
323.14 K, 13500 kPa | 982 ± 1.2 kg/m3
323.14 K, 13529 kPa | 981.8 ± 1.2 kg/m3
323.14 K, 13553 kPa | 981.9 ± 1.2 kg/m3
323.14 K, 13581 kPa | 982 ± 1.2 kg/m3
323.14 K, 13609 kPa | 981.9 ± 1.2 kg/m3
323.14 K, 13633 kPa | 982 ± 1.2 kg/m3
323.14 K, 13661 kPa | 982 ± 1.2 kg/m3
323.14 K, 13684 kPa | 982 ± 1.2 kg/m3
323.14 K, 13711 kPa | 982.1 ± 1.2 kg/m3
323.14 K, 13739 kPa | 982.1 ± 1.2 kg/m3
323.14 K, 13763 kPa | 982 ± 1.2 kg/m3
323.14 K, 13791 kPa | 982.1 ± 1.2 kg/m3
323.14 K, 13814 kPa | 982 ± 1.2 kg/m3
323.14 K, 13841 kPa | 982.2 ± 1.2 kg/m3
323.14 K, 13868 kPa | 982.2 ± 1.2 kg/m3
323.14 K, 14047 kPa | 982.2 ± 1.2 kg/m3
323.14 K, 14070 kPa | 982.3 ± 1.2 kg/m3
323.14 K, 14098 kPa | 982.2 ± 1.2 kg/m3
323.14 K, 14122 kPa | 982.3 ± 1.2 kg/m3
323.14 K, 14149 kPa | 982.4 ± 1.2 kg/m3
323.14 K, 14177 kPa | 982.3 ± 1.2 kg/m3
323.14 K, 14200 kPa | 982.3 ± 1.2 kg/m3
323.14 K, 14229 kPa | 982.4 ± 1.2 kg/m3
323.14 K, 14257 kPa | 982.3 ± 1.2 kg/m3
323.14 K, 14281 kPa | 982.5 ± 1.2 kg/m3
323.14 K, 14309 kPa | 982.5 ± 1.2 kg/m3
323.14 K, 14333 kPa | 982.4 ± 1.2 kg/m3
323.14 K, 14362 kPa | 982.5 ± 1.2 kg/m3
323.14 K, 14385 kPa | 982.3 ± 1.2 kg/m3
323.14 K, 14412 kPa | 982.5 ± 1.2 kg/m3
323.14 K, 14435 kPa | 982.6 ± 1.2 kg/m3
323.14 K, 14462 kPa | 982.5 ± 1.2 kg/m3
323.14 K, 14491 kPa | 982.5 ± 1.2 kg/m3
323.14 K, 14542 kPa | 982.6 ± 1.2 kg/m3
323.14 K, 14860 kPa | 982.8 ± 1.2 kg/m3
323.14 K, 14888 kPa | 982.8 ± 1.2 kg/m3
323.14 K, 14912 kPa | 982.7 ± 1.2 kg/m3
323.14 K, 14941 kPa | 982.8 ± 1.2 kg/m3
323.14 K, 14965 kPa | 982.8 ± 1.2 kg/m3
323.14 K, 14994 kPa | 982.8 ± 1.2 kg/m3
323.14 K, 15019 kPa | 982.8 ± 1.2 kg/m3
323.14 K, 15047 kPa | 982.8 ± 1.2 kg/m3
323.14 K, 15070 kPa | 982.8 ± 1.2 kg/m3
323.14 K, 15098 kPa | 983 ± 1.2 kg/m3
323.14 K, 15126 kPa | 982.9 ± 1.2 kg/m3
323.14 K, 15150 kPa | 982.9 ± 1.2 kg/m3
323.14 K, 15177 kPa | 983.1 ± 1.2 kg/m3
323.14 K, 15205 kPa | 983 ± 1.2 kg/m3
323.14 K, 15229 kPa | 983 ± 1.2 kg/m3
323.14 K, 32387 kPa | 993.4 ± 1.2 kg/m3
323.14 K, 32388 kPa | 993.7 ± 1.2 kg/m3 and 993.6 ± 1.2 kg/m3 and 993.5 ± 1.2 kg/m3
323.14 K, 32389 kPa | 993.5 ± 1.2 kg/m3 and 993.6 ± 1.2 kg/m3
323.14 K, 32390 kPa | 993.5 ± 1.2 kg/m3 and 993.6 ± 1.2 kg/m3
323.14 K, 32391 kPa | 993.5 ± 1.2 kg/m3
323.14 K, 32392 kPa | 993.6 ± 1.2 kg/m3
323.14 K, 32393 kPa | 993.5 ± 1.2 kg/m3
323.14 K, 32394 kPa | 993.5 ± 1.2 kg/m3
323.14 K, 32395 kPa | 993.5 ± 1.2 kg/m3
323.14 K, 32396 kPa | 993.5 ± 1.2 kg/m3 and 993.6 ± 1.2 kg/m3
323.14 K, 32398 kPa | 993.5 ± 1.2 kg/m3
323.14 K, 32399 kPa | 993.5 ± 1.2 kg/m3
323.14 K, 32400 kPa | 993.6 ± 1.2 kg/m3
323.14 K, 32401 kPa | 993.6 ± 1.2 kg/m3
323.14 K, 32402 kPa | 993.4 ± 1.2 kg/m3
323.14 K, 32403 kPa | 993.5 ± 1.2 kg/m3
323.14 K, 32404 kPa | 993.5 ± 1.2 kg/m3
323.15 K, 370.6 kPa | 972.9 ± 1.2 kg/m3
323.15 K, 372.9 kPa | 972.9 ± 1.2 kg/m3
323.15 K, 374.8 kPa | 973 ± 1.2 kg/m3
323.15 K, 377 kPa | 972.9 ± 1.2 kg/m3
323.15 K, 379.5 kPa | 972.9 ± 1.2 kg/m3
323.15 K, 381.7 kPa | 973 ± 1.2 kg/m3
323.15 K, 444.1 kPa | 973 ± 1.2 kg/m3
323.15 K, 447.6 kPa | 973 ± 1.2 kg/m3
323.15 K, 450.5 kPa | 973 ± 1.2 kg/m3
323.15 K, 453.3 kPa | 973 ± 1.2 kg/m3
323.15 K, 456.4 kPa | 973.1 ± 1.2 kg/m3
323.15 K, 460.3 kPa | 973 ± 1.2 kg/m3
323.15 K, 463.4 kPa | 973 ± 1.2 kg/m3
323.15 K, 466.7 kPa | 973 ± 1.2 kg/m3
323.15 K, 470.7 kPa | 973 ± 1.2 kg/m3
323.15 K, 473.8 kPa | 972.9 ± 1.2 kg/m3
323.15 K, 520.2 kPa | 973 ± 1.2 kg/m3
323.15 K, 524.4 kPa | 973.1 ± 1.2 kg/m3
323.15 K, 528.6 kPa | 973.1 ± 1.2 kg/m3
323.15 K, 532.7 kPa | 973 ± 1.2 kg/m3
323.15 K, 536.7 kPa | 973 ± 1.2 kg/m3
323.15 K, 542.1 kPa | 973 ± 1.2 kg/m3
323.15 K, 546.3 kPa | 972.9 ± 1.2 kg/m3
323.15 K, 551.3 kPa | 973.1 ± 1.2 kg/m3
323.15 K, 555.7 kPa | 973.2 ± 1.2 kg/m3
323.15 K, 560.2 kPa | 973.1 ± 1.2 kg/m3
323.15 K, 564.7 kPa | 973 ± 1.2 kg/m3
323.15 K, 567.1 kPa | 973 ± 1.2 kg/m3
323.15 K, 567.3 kPa | 973.1 ± 1.2 kg/m3
323.15 K, 568.2 kPa | 973 ± 1.2 kg/m3
323.15 K, 569.7 kPa | 973.1 ± 1.2 kg/m3
323.15 K, 571.8 kPa | 973.1 ± 1.2 kg/m3
323.15 K, 573.7 kPa | 973.1 ± 1.2 kg/m3
323.15 K, 575.6 kPa | 973.1 ± 1.2 kg/m3
323.15 K, 592.7 kPa | 973.1 ± 1.2 kg/m3
323.15 K, 594.8 kPa | 973.2 ± 1.2 kg/m3
323.15 K, 596.6 kPa | 973.1 ± 1.2 kg/m3
323.15 K, 598.6 kPa | 973.1 ± 1.2 kg/m3
323.15 K, 601.2 kPa | 973 ± 1.2 kg/m3
323.15 K, 603.4 kPa | 973 ± 1.2 kg/m3
323.15 K, 605.2 kPa | 973.1 ± 1.2 kg/m3
323.15 K, 607.4 kPa | 973.1 ± 1.2 kg/m3
323.15 K, 609.9 kPa | 973 ± 1.2 kg/m3
323.15 K, 612 kPa | 973.1 ± 1.2 kg/m3
323.15 K, 614 kPa | 973.1 ± 1.2 kg/m3

From the NIST ThermoML archive (doi:10.1021/je060271a)
